{"source": "paper PMC7072677", "about": "“Arachidonoylcholine and Other Unsaturated Long-Chain Acylcholines Are Endogenous Modulators of the Acetylcholine Signaling System” (Biomolecules, 2020)", "key": {"α7 nAChR": {"target": "T1, α7 nAChR (Homo sapiens, UniProt P36544)", "T1 construct": "SH-SY5Y cells endogenously expressing α7 nAChR; host or cells: SH-SY5Y", "T1 sequence (P36544 23-502)": "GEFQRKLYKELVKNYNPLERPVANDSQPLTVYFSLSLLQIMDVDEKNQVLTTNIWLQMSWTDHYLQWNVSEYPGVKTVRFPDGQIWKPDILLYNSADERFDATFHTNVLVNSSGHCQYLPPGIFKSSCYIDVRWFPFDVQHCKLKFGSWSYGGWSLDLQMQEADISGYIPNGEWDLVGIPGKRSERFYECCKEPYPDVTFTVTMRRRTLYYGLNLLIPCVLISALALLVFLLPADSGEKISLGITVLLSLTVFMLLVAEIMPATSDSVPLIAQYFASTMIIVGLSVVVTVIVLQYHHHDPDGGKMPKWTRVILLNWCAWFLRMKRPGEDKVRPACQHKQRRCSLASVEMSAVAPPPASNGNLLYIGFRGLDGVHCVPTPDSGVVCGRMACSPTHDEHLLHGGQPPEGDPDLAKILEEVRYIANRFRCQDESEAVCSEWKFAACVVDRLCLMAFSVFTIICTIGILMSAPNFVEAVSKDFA", "test": "Ca2+ mobilization (agonist test) in SH-SY5Y cells", "format": "cell-based", "method": "Cells were cultured for two days at 37 °C on black 96-well plates. Immediately before the experiments, cells were incubated with […] Fluo-4AM ester reagent and 1.25 mM probenecid (organic anion transporter inhibitor) for 1 h at room temperature. After the incubation, the cells were washed out with the extracellular solution (140 mM NaCl, 2 mM CaCl2, 2.8 mM KCl, 4 mM MgCl2, 20 mM HEPES, 10 mM glucose; pH 7.4). The last washout was supplied with 10 uM α7 nAChR positive allosteric modulator PNU 120596 and tested compound. The excitation of Fluo-4 achieved at 485 nm and fluorescence registered at 535 nm using Hidex Sense Beta Plus (Turku, Finland) multi-well plate fluorimeter. The calcium rise amplitude was measured from the base level of each well."}, "mouse muscle nAChR": {"target": "T2, mouse muscle nAChR (Mus musculus, UniProt P02716+P04756+P20782)", "T2 construct": "expressed in transfected cells; host or cells: Xenopus laevis oocytes, cDNA in pRBG4", "T2 sequence (P04756 21-457)": "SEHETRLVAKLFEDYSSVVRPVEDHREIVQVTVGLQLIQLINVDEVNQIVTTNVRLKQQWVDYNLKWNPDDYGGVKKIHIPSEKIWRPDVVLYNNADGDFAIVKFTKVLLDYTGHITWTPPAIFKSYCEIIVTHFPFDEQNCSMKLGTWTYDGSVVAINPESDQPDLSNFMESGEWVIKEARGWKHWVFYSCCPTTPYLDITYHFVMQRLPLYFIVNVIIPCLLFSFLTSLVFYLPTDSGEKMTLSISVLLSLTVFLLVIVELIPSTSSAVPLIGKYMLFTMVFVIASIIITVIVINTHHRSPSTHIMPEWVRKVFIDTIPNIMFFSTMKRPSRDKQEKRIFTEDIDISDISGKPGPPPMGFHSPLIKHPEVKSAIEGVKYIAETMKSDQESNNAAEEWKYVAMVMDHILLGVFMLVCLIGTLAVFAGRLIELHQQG", "T2 sequence (P09690 24-501 partner)": "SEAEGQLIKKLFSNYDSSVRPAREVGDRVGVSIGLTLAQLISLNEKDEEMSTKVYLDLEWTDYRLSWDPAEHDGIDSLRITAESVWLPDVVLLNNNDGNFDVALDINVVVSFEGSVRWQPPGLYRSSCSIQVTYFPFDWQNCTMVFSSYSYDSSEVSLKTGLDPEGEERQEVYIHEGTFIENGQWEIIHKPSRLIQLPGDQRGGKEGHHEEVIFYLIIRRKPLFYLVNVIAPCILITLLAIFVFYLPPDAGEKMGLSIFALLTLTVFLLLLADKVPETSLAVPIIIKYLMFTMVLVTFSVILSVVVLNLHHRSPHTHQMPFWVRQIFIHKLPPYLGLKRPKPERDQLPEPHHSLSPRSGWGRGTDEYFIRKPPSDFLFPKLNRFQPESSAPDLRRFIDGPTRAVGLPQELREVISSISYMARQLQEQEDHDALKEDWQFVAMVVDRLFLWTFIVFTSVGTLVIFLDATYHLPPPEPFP", "T2 sequence (P02716 25-520)": "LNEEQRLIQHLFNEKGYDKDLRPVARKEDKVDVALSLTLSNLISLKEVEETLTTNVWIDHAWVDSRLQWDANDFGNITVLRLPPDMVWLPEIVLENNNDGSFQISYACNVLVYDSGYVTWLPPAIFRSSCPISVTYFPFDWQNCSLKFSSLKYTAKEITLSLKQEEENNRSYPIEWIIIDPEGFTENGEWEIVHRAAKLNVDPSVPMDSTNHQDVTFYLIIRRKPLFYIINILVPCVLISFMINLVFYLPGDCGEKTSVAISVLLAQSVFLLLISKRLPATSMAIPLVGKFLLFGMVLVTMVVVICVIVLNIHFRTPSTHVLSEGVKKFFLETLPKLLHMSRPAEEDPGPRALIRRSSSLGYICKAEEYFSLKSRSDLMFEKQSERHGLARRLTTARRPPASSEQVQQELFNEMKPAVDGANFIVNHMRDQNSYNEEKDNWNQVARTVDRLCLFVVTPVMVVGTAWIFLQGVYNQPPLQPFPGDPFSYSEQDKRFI", "T2 sequence (P20782 21-493)": "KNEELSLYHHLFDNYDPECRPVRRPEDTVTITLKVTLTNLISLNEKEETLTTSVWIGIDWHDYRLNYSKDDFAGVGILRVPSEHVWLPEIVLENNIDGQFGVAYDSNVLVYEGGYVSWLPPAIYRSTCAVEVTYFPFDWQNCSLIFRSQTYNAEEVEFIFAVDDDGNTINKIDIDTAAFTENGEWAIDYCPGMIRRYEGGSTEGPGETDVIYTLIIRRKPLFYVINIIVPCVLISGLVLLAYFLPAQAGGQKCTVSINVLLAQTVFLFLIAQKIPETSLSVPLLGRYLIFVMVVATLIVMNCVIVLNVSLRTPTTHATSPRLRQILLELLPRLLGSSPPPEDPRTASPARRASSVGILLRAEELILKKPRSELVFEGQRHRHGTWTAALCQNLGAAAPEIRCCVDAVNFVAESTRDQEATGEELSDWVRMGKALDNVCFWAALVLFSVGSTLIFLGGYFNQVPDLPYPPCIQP", "test": "Two-electrode electrophysiology, ACh-evoked current in Xenopus oocytes", "format": "cell-based"}, "α1β3γ2 GABAAR": {"target": "T3, α1β3γ2 GABAAR (Mus musculus, UniProt P62812+P63080)", "T3 construct": "expressed in transfected cells; host or cells: Xenopus oocytes, cDNA in PCI vector", "T3 sequence (P62812 28-455)": "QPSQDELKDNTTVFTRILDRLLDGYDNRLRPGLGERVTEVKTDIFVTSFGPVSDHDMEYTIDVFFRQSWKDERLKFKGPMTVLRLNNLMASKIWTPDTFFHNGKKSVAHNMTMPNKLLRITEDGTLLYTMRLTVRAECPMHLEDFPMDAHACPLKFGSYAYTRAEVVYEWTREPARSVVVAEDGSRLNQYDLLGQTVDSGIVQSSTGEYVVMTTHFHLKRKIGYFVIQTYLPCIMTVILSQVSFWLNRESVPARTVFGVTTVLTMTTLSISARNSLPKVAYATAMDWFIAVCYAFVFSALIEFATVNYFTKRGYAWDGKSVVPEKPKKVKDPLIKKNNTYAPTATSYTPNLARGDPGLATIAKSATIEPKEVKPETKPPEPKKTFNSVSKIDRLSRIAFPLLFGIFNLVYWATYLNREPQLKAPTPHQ", "T3 sequence (P63080 26-473)": "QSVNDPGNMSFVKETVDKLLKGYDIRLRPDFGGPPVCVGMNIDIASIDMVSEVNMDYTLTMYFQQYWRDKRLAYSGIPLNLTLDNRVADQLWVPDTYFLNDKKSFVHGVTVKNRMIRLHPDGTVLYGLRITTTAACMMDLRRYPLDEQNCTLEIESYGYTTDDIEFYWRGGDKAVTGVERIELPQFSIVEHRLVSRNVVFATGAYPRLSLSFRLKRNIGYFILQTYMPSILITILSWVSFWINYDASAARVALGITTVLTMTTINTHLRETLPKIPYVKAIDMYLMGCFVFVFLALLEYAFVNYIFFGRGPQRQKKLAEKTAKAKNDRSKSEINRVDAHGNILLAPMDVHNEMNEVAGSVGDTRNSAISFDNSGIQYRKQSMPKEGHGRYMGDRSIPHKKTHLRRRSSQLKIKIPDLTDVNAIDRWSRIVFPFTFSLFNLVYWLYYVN", "T3 sequence (P22723 39-474 partner)": "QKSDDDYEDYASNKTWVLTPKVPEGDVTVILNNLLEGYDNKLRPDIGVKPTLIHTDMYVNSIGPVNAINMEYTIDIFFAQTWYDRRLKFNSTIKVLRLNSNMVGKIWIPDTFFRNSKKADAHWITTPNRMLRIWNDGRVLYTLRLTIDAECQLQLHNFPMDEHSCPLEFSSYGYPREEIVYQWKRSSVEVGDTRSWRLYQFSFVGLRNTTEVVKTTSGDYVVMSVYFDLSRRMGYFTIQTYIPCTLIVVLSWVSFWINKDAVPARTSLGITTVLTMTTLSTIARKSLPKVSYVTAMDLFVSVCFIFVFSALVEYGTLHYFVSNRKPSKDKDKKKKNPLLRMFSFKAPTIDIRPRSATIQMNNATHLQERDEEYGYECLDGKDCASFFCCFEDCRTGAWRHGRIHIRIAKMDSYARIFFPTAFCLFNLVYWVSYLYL", "test": "Electrophysiology, GABA-evoked currents in Xenopus oocytes", "format": "cell-based", "settings": "up to a concentration of 10 μM"}, "[1]": {"system": "mouse forelimb grip strength", "test": "In vivo myorelaxant activity, forelimb grip strength", "settings": "mice"}, "human erythrocyte AChE [2]": {"target": "T4, human erythrocyte AChE (Homo sapiens, UniProt P22303)", "T4 sequence (P22303 32-617 isoform P22303-2 limits assumed)": "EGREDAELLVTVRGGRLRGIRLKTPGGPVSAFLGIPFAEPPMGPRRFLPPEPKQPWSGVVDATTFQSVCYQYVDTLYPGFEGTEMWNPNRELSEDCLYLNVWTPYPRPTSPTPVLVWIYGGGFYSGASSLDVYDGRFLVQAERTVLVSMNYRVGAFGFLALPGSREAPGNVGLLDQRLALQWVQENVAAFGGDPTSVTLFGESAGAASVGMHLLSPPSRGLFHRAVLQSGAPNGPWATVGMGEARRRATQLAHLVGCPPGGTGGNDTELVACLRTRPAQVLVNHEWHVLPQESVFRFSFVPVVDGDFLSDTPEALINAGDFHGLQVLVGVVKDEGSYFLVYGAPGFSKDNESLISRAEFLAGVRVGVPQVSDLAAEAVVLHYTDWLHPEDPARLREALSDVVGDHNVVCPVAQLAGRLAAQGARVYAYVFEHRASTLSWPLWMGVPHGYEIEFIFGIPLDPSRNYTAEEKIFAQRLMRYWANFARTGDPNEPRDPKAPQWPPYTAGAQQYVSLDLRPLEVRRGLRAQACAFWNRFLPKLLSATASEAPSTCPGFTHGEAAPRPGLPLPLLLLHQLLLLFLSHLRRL", "test": "Hydrolysis of the substance by AChE (HPLC)", "format": "in vitro ADME", "settings": "1 mM substance, 0.02 U/mL enzyme, pH 7.5, 25 °C, 40 min", "method": "(§1) AChE and BChE hydrolysis of AA-CHOL was determined in 100 mM phosphate buffer, pH 7.5 at 25 °C, the AA-CHOL concentration was 1 mM, the incubation time was 40 min. The enzyme concentrations were 0.02 U/mL in the sample. The reverse phase HPLC method was used to estimate the hydrolysis of AA-CHOL. As a control, acetylthiocholine iodide (ATCh) hydrolysis was determined in the same conditions."}, "equine serum BChE [3]": {"target": "T5, equine serum BChE (Equus caballus, UniProt P81908)", "T5 sequence (P81908 whole entry)": "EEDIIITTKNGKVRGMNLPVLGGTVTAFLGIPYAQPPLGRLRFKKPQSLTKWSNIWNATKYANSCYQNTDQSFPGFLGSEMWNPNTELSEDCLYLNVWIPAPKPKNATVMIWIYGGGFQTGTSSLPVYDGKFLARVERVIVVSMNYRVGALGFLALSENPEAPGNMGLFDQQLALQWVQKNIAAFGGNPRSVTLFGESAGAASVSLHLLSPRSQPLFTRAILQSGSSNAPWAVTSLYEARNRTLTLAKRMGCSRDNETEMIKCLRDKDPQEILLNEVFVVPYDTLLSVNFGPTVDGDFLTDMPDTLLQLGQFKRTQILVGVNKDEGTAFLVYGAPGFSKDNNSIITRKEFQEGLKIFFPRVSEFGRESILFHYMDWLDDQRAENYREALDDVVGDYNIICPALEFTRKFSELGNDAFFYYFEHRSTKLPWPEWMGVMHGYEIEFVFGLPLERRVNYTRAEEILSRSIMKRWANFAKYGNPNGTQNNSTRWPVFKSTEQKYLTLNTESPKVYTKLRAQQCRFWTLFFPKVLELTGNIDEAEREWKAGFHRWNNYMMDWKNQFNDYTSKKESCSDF", "test": "Hydrolysis of the substance by BChE (HPLC)", "format": "in vitro ADME, horse", "settings": "1 mM substance, 0.02 U/mL enzyme, pH 7.5, 25 °C", "method": "as §1"}, "human erythrocyte AChE [4]": {"target": "T4, human erythrocyte AChE", "test": "biochemical", "settings": "for IC50: 10 min preincubation, ATCh 1 mM, N = 11, read-out: AChE IC50, inhibition of ATCh hydrolysis"}, "equine serum BChE [5]": {"target": "T5, equine serum BChE", "test": "biochemical", "settings": "for IC50: 10 min preincubation, ATCh 1 mM, N = 11, read-out: BChE IC50, inhibition of ATCh hydrolysis"}, "A549 lung cancer cells [6]": {"system": "A549 lung cancer cells", "settings": "for decrease of A549 viability: 100 μM, 24 h incubation, MTT; for decrease of cell viability, dose-dependent, maximum: A549 lung cancer cells"}, "[7]": {"system": "sea urchin Strongylocentrotus droebachiensis and S. purpuratus embryo", "parameters": "method as in PMID 11443948", "settings": "quenched by QX-222; cited from earlier work"}, "A549 cells": {"system": "A549 cells", "test": "Caspase activation and apoptosis staining in A549 cells", "format": "cell-based", "settings": "A549, 150 μM"}, "A549 lung cancer cells [8]": {"system": "A549 lung cancer cells", "settings": "1 to 10 µM, predominantly after 48 and 72 h; cited from earlier work"}}, "note": "“Also recorded” adds a separate entry of the source. Like-named read-outs stand apart in the source and are kept apart here."}
{"smiles": "CCCCC/C=C\\C/C=C\\C/C=C\\C/C=C\\CCCC(=O)OCC[N+](C)(C)C", "note": "[AA-CHOL, Arachidonoylcholine]", "values": [{"measurement": "induction of rise in intracellular Ca2+ (agonistic properties)", "setting": "α7 nAChR", "value": "showed no agonistic properties"}, {"measurement": "IC50", "setting": "mouse muscle nAChR", "value": "3.16 ± 0.26", "unit": "µM"}, {"measurement": "functional inhibition of α1β3γ2 GABAAR", "setting": "α1β3γ2 GABAAR", "value": "no functional inhibition"}, {"measurement": "muscle relaxant effect, grip strength vs control", "setting": "[1]; injection into front paws (intramuscular) 0.5, 1 and 4 mg/kg, 15 min to 4 h", "value": "no differences from the control group; also recorded: no difference from the control; also recorded: does not produce a significant muscle relaxation"}, {"measurement": "muscle relaxant effect, grip strength vs control", "setting": "[1]; subcutaneous injection 10 and 30 mg/kg, up to 240 min", "value": "No differences with the respective controls; also recorded: no substance activity"}, {"measurement": "hydrolysis by AChE", "setting": "human erythrocyte AChE [2]", "value": "not hydrolyzed"}, {"measurement": "hydrolysis by BChE", "setting": "equine serum BChE [3]; during 40 min", "value": "up to 30%"}, {"measurement": "IC50", "setting": "human erythrocyte AChE [4]", "value": "90 ± 1", "unit": "µM"}, {"measurement": "type of AChE inhibition", "setting": "human erythrocyte AChE [4]; steady-state kinetics", "value": "mixed type mechanism; also recorded: mixed-type inhibition"}, {"measurement": "αKi (noncompetitive component), AChE", "setting": "human erythrocyte AChE [4]; steady-state, Lineweaver-Burk", "value": "51.4 ± 4.1", "unit": "µM"}, {"measurement": "Ki", "setting": "human erythrocyte AChE [4]; steady-state, Lineweaver-Burk, read-out: Ki (competitive component), AChE", "value": "16.7 ± 1.5", "unit": "µM"}, {"measurement": "IC50", "setting": "equine serum BChE [5]", "value": "170 ± 16", "unit": "µM"}, {"measurement": "type of BChE inhibition", "setting": "equine serum BChE [5]; steady-state kinetics", "value": "mixed type mechanism; also recorded: mixed-type inhibition"}, {"measurement": "αKi (noncompetitive component), BChE", "setting": "equine serum BChE [5]; steady-state, Lineweaver-Burk", "value": "214 ± 17", "unit": "µM"}, {"measurement": "Ki", "setting": "equine serum BChE [5]; steady-state, Lineweaver-Burk, read-out: Ki (competitive component), BChE", "value": "70.5 ± 6.3", "unit": "µM"}, {"measurement": "decrease of A549 viability", "setting": "A549 lung cancer cells [6]", "value": 10, "unit": "%"}, {"measurement": "decrease of cell viability, dose-dependent, maximum", "setting": "A549 lung cancer cells [6]", "value": "up to 45%"}, {"measurement": "effect on sea urchin larva", "setting": "[7]", "value": "dose-dependently induced the larva immobilization and cell lysis"}]}
{"smiles": "CC(=O)SCC[N+](C)(C)C.[I-]", "note": "[ATCh, acetylthiocholine iodide, reference compound]", "values": [{"measurement": "hydrolysis by AChE", "setting": "human erythrocyte AChE [2]", "value": "fully hydrolyzed"}, {"measurement": "hydrolysis by BChE", "setting": "equine serum BChE [3]; 40 min", "value": "fully hydrolyzed"}]}
{"smiles": "CC/C=C\\C/C=C\\C/C=C\\C/C=C\\C/C=C\\C/C=C\\CCC(=O)OCC[N+](C)(C)C", "note": "[DHA-CHOL, docosahexaenoylcholine]", "values": [{"measurement": "induction of rise in intracellular Ca2+ (agonistic properties)", "setting": "α7 nAChR", "value": "showed no agonistic properties"}, {"measurement": "AChE inhibitory activity", "setting": "human erythrocyte AChE [4]", "value": "Neither Ln-CHOL nor DHA-CHOL had noticeable inhibitory activity"}, {"measurement": "IC50", "setting": "human erythrocyte AChE [4]", "value": "> 300", "unit": "µM"}, {"measurement": "IC50", "setting": "equine serum BChE [5]", "value": "> 300", "unit": "µM"}, {"measurement": "decrease of A549 viability", "setting": "A549 lung cancer cells [6]", "value": "inactive"}, {"measurement": "effect on sea urchin larva", "setting": "[7]", "value": "dose-dependently induced the larva immobilization and cell lysis"}]}
{"smiles": "CCCCC/C=C\\C/C=C\\CCCCCCCC(=O)OCC[N+](C)(C)C", "note": "[Ln-CHOL]", "values": [{"measurement": "induction of rise in intracellular Ca2+ (agonistic properties)", "setting": "α7 nAChR", "value": "showed no agonistic properties"}, {"measurement": "AChE inhibitory activity", "setting": "human erythrocyte AChE [4]", "value": "Neither Ln-CHOL nor DHA-CHOL had noticeable inhibitory activity"}, {"measurement": "IC50", "setting": "human erythrocyte AChE [4]", "value": "> 300", "unit": "µM"}, {"measurement": "IC50", "setting": "equine serum BChE [5]", "value": "> 300", "unit": "µM"}, {"measurement": "decrease of A549 viability", "setting": "A549 lung cancer cells [6]", "value": 10, "unit": "%"}, {"measurement": "decrease of cell viability, dose-dependent, maximum", "setting": "A549 lung cancer cells [6]", "value": "up to 45%"}]}
{"smiles": "CN1CCC[C@H]1c1cccnc1", "note": "[Nicotine, reference compound]", "values": [{"measurement": "effect on A549 proliferation", "setting": "A549 lung cancer cells [6]; 15 μM", "value": "slightly decreased"}, {"measurement": "effect on the cytotoxicity of Ol-CHOL", "setting": "A549 lung cancer cells [6]; A549, 90 or 100 μM of Ol-CHOL", "value": "did not affect the cytotoxicity"}]}
{"smiles": "CCCCCCCC/C=C\\CCCCCCCC(=O)OCC[N+](C)(C)C", "note": "[Ol-CHOL]", "values": [{"measurement": "phosphatidylserine exposure on the membrane", "setting": "A549 cells", "value": "phosphatidylserine exposure on the membrane"}, {"measurement": "caspase 3 activation", "setting": "A549 cells; 5 h", "value": "activation"}, {"measurement": "caspase 8 activation", "setting": "A549 cells; 5 h", "value": "not caspase 8 activation"}, {"measurement": "caspase 9 activation", "setting": "A549 cells; 5 h", "value": "activation"}, {"measurement": "decrease of A549 viability", "setting": "A549 lung cancer cells [6]", "value": 45, "unit": "%"}, {"measurement": "decrease of cell viability, dose-dependent, maximum", "setting": "A549 lung cancer cells [6]", "value": "up to 45%"}]}
{"smiles": "CCN1C[C@]2(COC(=O)c3ccccc3N3C(=O)C[C@H](C)C3=O)CC[C@H](OC)[C@@]34[C@@H]5C[C@H]6[C@H](OC)[C@@H]5[C@](O)(C[C@@H]6OC)[C@@](O)([C@@H](OC)[C@H]23)[C@@H]14", "note": "[methyllycaconitine, reference compound]", "values": [{"measurement": "effect on A549 proliferation", "setting": "A549 lung cancer cells [6]; up to the concentration of 10 μM", "value": "did not affect"}, {"measurement": "effect on proliferation of the A549 cells", "setting": "A549 lung cancer cells [8]", "value": "inhibits the proliferation"}]}
